Measurements taken from patent publication US20140256660A1, “ANTIBIOTIC CONJUGATES LINKED WITH STEROID DRUGS” (Allergan, Inc., priority 2013, published 2014).

System: human recombinant carboxylesterases
Assay: In vitro metabolic stability (rate of metabolite formation) in human recombinant carboxylesterases
Assay type: in vitro ADME
Conditions: human recombinant carboxylesterases 0.1 mg/mL, 1 μM test compound, pH 6.0, 37° C.
Procedure: Dutch Belted rabbits were euthanized with an overdose of sodium pentobarbital. The corneas were collected and homogenized in ice-cold potassium chloride solution (pH=7.4). The homogenate was centrifuged at 755×g for 30 min at 4° C. and aliquots of the supernatant were stored at or below −70° C. until metabolism experiments were conducted. Prior to storing the homogenates an aliquot was removed for determination of protein concentrations by calculating the 260 nm absorbance using a spectrophotometer. Human recombinant carboxylesterases were purchased from a commercial vendor (BD Gentest™, Bedford, Mass.)
All metabolic stability experiments were performed in triplicate in 96-well plate format. The final incubation mixture contained 1 μM test compound, 0.3 mg/mL corneal protein homogenate or 0.1 mg/mL human recombinant carboxylesterase mixture in a final volume of 0.5 mL 0.1 M potassium phosphate buffer (pH=6.0). The final percentage of solvent in the incubation was less than 1.0% to prevent inhibition of enzymatic activity. Following a pre-incubation at 37° C., test article (i.e. ester linked hybrids) was added to initiate the reaction. At designated time points (typically less than 60 minutes to capture the linear range of metabolite formation), 0.05 mL aliquots were removed from the incubation mixtures using a clean pipet tip and immediately placed in organic solvent to stop any esterase activity.
Hydrolysis of the metabolites was confirmed to be due to esterase activity and not chemical lability. The samples were analyzed by liquid chromatography with mass spectrometry (LC-MS/MS) detection to determine the metabolite concentrations resulting from the metabolism of ester linked hybrids. Internal standards were used to compensate for variability from sample processing, chromatographic elution, mass spectrometer response and ion suppression by matrix components.

| Structure (SMILES) | Rate of formation Metabolite 2 (Gatifloxacin) (metabolite Gatifloxacin) [nM/min/mg] | Rate of formation Metabolite 1 (Prednisolone) (metabolite Prednisolone) [nM/min/mg] | other results |
| --- | --- | --- | --- |
| COc1c(N2CCN(C(=O)OCOC(=O)CCC(=O)OCC(=O)[C@@]3(O)[C@@H](C)CC4C5CCC6=CC(=O)C=C[C@]6(C)[C@@]5(F)[C@@H](O)C[C@@]43C)C(C)C2)c(F)cc2c(=O)c(C(=O)O)cn(C3CC3)c12 (relative stereo) [Compound 2, rel-1-cyclopropyl-6-fluoro-7-[4-({[(4-{2-[(9R,10S,11S,13S,16S,17R)-9-fluoro-11,17-dihydroxy-10,13,16-trimethyl-3-oxo-6,7,8,9,10,11,12,13,14,15,16,17-dodecahydro-3H-cyclopenta[a]phenanthren-17-yl]-2-oxoethoxy}-4-oxobutanoyl)oxy]methoxy}carbonyl)-3-methylpiperazin-1-yl]-8-methoxy-4-oxo-1,4-dihydroquinoline-3-carboxylic acid] | 112 ± 4 | – | Rate of formation Metabolite 1 (Betamethasone) (metabolite Betamethasone): 109 ± 2 nM/min/mg |
| COc1c(N2CCN(C(=O)OCOC(=O)CCC(=O)OCC(=O)[C@@]3(O)[C@H](C)CC4C5CCC6=CC(=O)C=C[C@]6(C)[C@@]5(F)[C@@H](O)C[C@@]43C)C(C)C2)c(F)cc2c(=O)c(C(=O)O)cn(C3CC3)c12 (relative stereo) [Compound 11, rel-1-cyclopropyl-6-fluoro-7-[4-({[(4-{2-[(9R,10S,11S,13S,16R,17R)-9-fluoro-11,17-dihydroxy-10,13,16-trimethyl-3-oxo-6,7,8,9,10,11,12,13,14,15,16,17-dodecahydro-3H-cyclopenta[a]phenanthren-17-yl]-2-oxoethoxy}-4-oxobutanoyl)oxy]methoxy}carbonyl)-3-methylpiperazin-1-yl]-8-methoxy-4-oxo-1,4-dihydroquinoline-3-carboxylic acid] | 56 ± 2.1 | – | Rate of formation Metabolite 1 (Dexamethasone): 44.5 ± 2.62 nM/min/mg |
| COc1c(N2CCNC(C)C2)c(F)cc2c(=O)c(C(=O)OCCCOC(=O)CCC(=O)OCC(=O)[C@]3(O)[C@@H](C)C[C@@H]4[C@H]5CCC6=CC(=O)C=C[C@@]6(C)[C@]5(F)[C@H](O)C[C@]43C)cn(C3CC3)c12 (relative stereo) [Compound 18, 3-({[1-cyclopropyl-6-fluoro-8-methoxy-7-(3-methylpiperazin-1-yl)-4-oxo-1,4-dihydroquinolin-3-yl]carbonyl}oxy)propyl 2-[(8R,9S,10R,11R,13R,14R,16S,17S)-9-fluoro-11,17-dihydroxy-10,13,16-trimethyl-3-oxo-6,7,8,9,10,11,12,13,14,15,16,17-dodecahydro-3H-cyclopenta[a]phenanthren-17-yl]-2-oxoethyl rel-butanedioate] | 2.44 ± 0.87 | – | Rate of formation Metabolite 1 (Dexamethasone): 59.7 ± 5.15 nM/min/mg |
| COc1c(N2CCN(C(=O)OCOC(=O)CCC(=O)N[C@@H](C(=O)OCC(=O)[C@]3(O)CCC4C5CCC6=CC(=O)C=C[C@@]6(C)C5[C@H](O)C[C@]43C)C(C)C)C(C)C2)c(F)cc2c(=O)c(C(=O)O)cn(C3CC3)c12 (relative stereo) [Compound 29, rel-1-cyclopropyl-7-{4-[(10R)-14-[(10S,11R,13R,17S)-11,17-dihydroxy-10,13-dimethyl-3-oxo-6,7,8,9,10,11,12,13,14,15,16,17-dodecahydro-3H-cyclopenta[a]phenanthren-17-yl]-5,8,11,14-tetraoxo-10-(propan-2-yl)-2,4,12-trioxa-9-azatetradecan-1-oyl]-3-methylpiperazin-1-yl}-6-fluoro-8-methoxy-4-oxo-1,4-dihydroquinoline-3-carboxylic acid] | 36.5 ± 1.1 | 17.3 ± 0.1 | – |
| COc1c(N2CCNC(C)C2)c(F)cc2c(=O)c(C(=O)OCCCC(=O)OCC(=O)[C@]3(O)CC[C@@H]4[C@H]5CCC6=CC(=O)C=C[C@@]6(C)C5[C@H](O)C[C@]43C)cn(C3CC3)c12 (relative stereo) [Compound 41, 4-{2-[(8R,10S,11R,13R,14R,17S)-11,17-dihydroxy-10,13-dimethyl-3-oxo-6,7,8,9,10,11,12,13,14,15,16,17-dodecahydro-3H-cyclopenta[a]phenanthren-17-yl]-2-oxoethoxy}-4-oxobutyl rel-1-cyclopropyl-6-fluoro-8-methoxy-7-(3-methylpiperazin-1-yl)-4-oxo-1,4-dihydroquinoline-3-carboxylate] | – | – | Rate of formation Metabolite 1 (Gatifloxacin) (metabolite Gatifloxacin): 7.60 ± 2.1 nM/min/mg; Rate of formation Metabolite 2 (Prednisolone) (metabolite Prednisolone): 74.6 ± 4.1 nM/min/mg |
| COc1c(N2CCNC(C)C2)c(F)cc2c(=O)c(C(=O)OCOC(=O)OCC(=O)[C@]3(O)CC[C@@H]4[C@H]5CCC6=CC(=O)C=C[C@@]6(C)C5[C@H](O)C[C@]43C)cn(C3CC3)c12 (relative stereo) [Compound 42, [({2-[(8R,10S,11R,13R,14R,17S)-11,17-dihydroxy-10,13-dimethyl-3-oxo-6,7,8,9,10,11,12,13,14,15,16,17-dodecahydro-3H-cyclopenta[a]phenanthren-17-yl]-2-oxoethoxy}carbonyl)oxy]methyl rel-1-cyclopropyl-6-fluoro-8-methoxy-7-(3-methylpiperazin-1-yl)-4-oxo-1,4-dihydroquinoline-3-carboxylate] | 668 ± 102 | 633 ± 85 | – |
| COc1c(N2CCNC(C)C2)c(F)cc2c(=O)c(C(=O)OC(C)OC(=O)OCC(=O)[C@]3(O)CC[C@@H]4[C@H]5CCC6=CC(=O)C=C[C@@]6(C)C5[C@H](O)C[C@]43C)cn(C3CC3)c12 (relative stereo) [Compound 43, 1-[({2-[(8R,10S,11R,13R,14R,17S)-11,17-dihydroxy-10,13-dimethyl-3-oxo-6,7,8,9,10,11,12,13,14,15,16,17-dodecahydro-3H-cyclopenta[a]phenanthren-17-yl]-2-oxoethoxy}carbonyl)oxy]ethyl rel-1-cyclopropyl-6-fluoro-8-methoxy-7-(3-methylpiperazin-1-yl)-4-oxo-1,4-dihydroquinoline-3-carboxylate] | 419 ± 8 | 298 ± 13 | – |
| COc1c(N2CCNC(C)C2)c(F)cc2c(=O)c(C(=O)OCOC(=O)CCC(=O)OCC(=O)[C@]3(O)CC[C@@H]4[C@H]5CCC6=CC(=O)C=C[C@@]6(C)C5[C@H](O)C[C@]43C)cn(C3CC3)c12 (relative stereo) [Compound 44, ({[1-cyclopropyl-6-fluoro-8-methoxy-7-(3-methylpiperazin-1-yl)-4-oxo-1,4-dihydroquinolin-3-yl]carbonyl}oxy)methyl 2-[(8R,10S,11R,13R,14R,17S)-11,17-dihydroxy-10,13-dimethyl-3-oxo-6,7,8,9,10,11,12,13,14,15,16,17-dodecahydro-3H-cyclopenta[a]phenanthren-17-yl]-2-oxoethyl rel-butanedioate] | 760 ± 110 | 365 ± 32 | – |
